In paper PMC10671849, “Synthesis and Evaluation of Marine-Inspired Compounds Result in Hybrids with Antitrypanosomal and Antileishmanial Activities” (Marine Drugs, 2023):
Converted amounts (≈) assume the structure as drawn. Where two headings read alike, the source gives them in different places.

Tests used:
[1] = tested on: T. brucei Lister 427 bloodstream forms; experiment: Anti-T. brucei activity, resazurin-based assay on bloodstream forms; format: cell-based, Trypanosoma brucei; settings: for IC50: Trypanosoma brucei, read-out: Anti-Parasitic Activity IC50 (µM) 95% CI, T. brucei
Description: T. brucei Lister 427 bloodstream forms were grown in a humidified incubator at 37 °C and 5% CO2 in complete HMI-9 medium supplemented with 10% heat-inactivated fetal bovine serum (FBS) and 100 UI/mL penicillin/streptomycin. Parasite maintenance was performed in T25 ventilated flasks by subpassage at a concentration of 1 × 10^4/mL every 2 days in T25 ventilated flasks. Luciferase-expressing L. infantum (MHOM/MA/67/ITMAP-263) axenic amastigotes expressing episomal luciferase were maintained in MAA20 [31] at 37 °C in a 5% CO2 environment with subculture every 7 days at 1 × 10^6/mL in 5-mL T25 ventilated flasks.
The compounds’ efficacy against bloodstream-stage trypomastigotes was evaluated using a resazurin-based assay. Parasites were added to 100 µL of serial dilutions of compounds in supplemented complete medium at a cell density of 5 × 10^3/mL. As a quality control, a dose–response curve for the antitrypanosomal pentamidine was included in all the assays. The final volume of the assay was 200 µL/well. Each condition was carried out in duplicate. Following 72 h of incubation at the specific conditions for parasites, 20 […] of a 0.5 mM resazurin solution was added, and the plates were incubated for a further 4 h under the same conditions. Fluorescence was measured at 544 nm and 590 nm excitation and emission wavelength, respectively, using a Synergy 2 Multi-Mode Reader (Biotek, Winooski, VT, USA). The results are shown as % of parasite growth inhibition compared to control (untreated parasites) and represent the average of at least three independent experiments. The effect was evaluated by the determination of the IC50 value (concentration required to inhibit growth in 50%) and calculated by non-linear regression curves using GraphPad Prism software, version 8.1.1 for Windows (GraphPad Software, San Diego, CA, USA).

[2] = tested on: Staphylococcus aureus ATCC 25923; experiment: Antibacterial broth microdilution (CLSI M100-S25), MIC/MLC; format: cell-based
Description: (§1) All tested compounds (9a–9d, 10a–10c, 13, 14, and eugenol (1)) were prepared in DMSO (Sigma-Aldrich, St. Louis, MO, USA) at a concentration of 10 mg/mL. The reference drugs used (voriconazole (Sigma-Aldrich, St. Louis, MO, USA) for fungi and quality control; gentamicin (Sigma-Aldrich, St. Louis, MO, USA) for bacterial and quality control) were prepared at 6.4 mg/mL. The stock solutions of the compounds were stored at –20 °C until immediately before the assays and then were diluted in fresh culture medium, RPMI-1640 medium (Biochrom AG, Berlin, Germany) buffered with 3-(N-morpholino)propanesulfonic acid (MOPS—Sigma-Aldrich, St. Louis, MO, USA) for fungi and cation-adjusted Mueller–Hinton broth (MHBII—Becton Dickinson, France) for bacteria, henceforth referred to as RPMI and MHB, respectively.
(§2) Fungal strains, including reference strains and clinical isolates, were used for the study of the antifungal activity: a yeast reference strain from American Type Culture Collection (ATCC), Candida albicans ATCC 10231; filamentous fungi reference strain Aspergillus fumigatus ATCC 240305; and a clinical isolate of dermatophytes Trichophyton rubrum FF5. Candida krusei ATCC 6258 was used as a quality control. All fungal strains were stored in Sabouraud dextrose broth (SDB—Bio-Mèrieux, Marcy L’Etoile, France) with glycerol (20%) at −80 °C and were subcultured in Sabouraud dextrose agar (SDA—Bio-Mèrieux, Marcy L’Etoile, France) for 24–72 h (yeasts and A. fumigatus) or 5–7 days (T. rubrum) before each assay to obtain optimal growth and purity conditions. Two bacteria strains were used, one Gram positive and one Gram negative: Staphylococcus aureus ATCC 25923 and Escherichia coli ATCC 25922, respectively. The bacterial strains were stored in trypticase soy broth (TSB—Biolife, Milan, Italy) with glycerol (10%) at −80 °C and subcultured in Mueller–Hinton agar (MHA—Bio-Mèrieux, Marcy L’Etoile, France) for 24 h before each assay.
(§3) For bacteria, MICs were determined by the broth microdilution method, following the recommendations of the reference method M100-S25 [29].
(§4) Similarly, as previous described, two-fold serial dilutions of each stock solution were prepared using MHB to obtain a range of test concentrations from 16 to 512 μg/mL. Bacterial cell suspensions were prepared from 24-h cultures in saline solution, and the transmittance of cell density was adjusted to 0.5 McFarland standard. Dilutions were performed using MHB to obtain cell final concentrations in the plate of 0.5–2.5 × 10^4 CFU/mL.
(§5) Plates with the prepared serial dilutions of the tested compounds were inoculated with the same volume of the bacterial suspension, and sterility, growth and DMSO controls were included in each assay. Immediately thereafter, the plates were incubated in a humid atmosphere (aerobic environment) for 18–24 h at 36 °C.
(§6) MIC values were considered the minimum concentrations that inhibited the bacterial growth by 100% compared to the growth control. The reference drug, gentamicin, was tested as a quality control, and the results were according to the norms.
(§7) A volume of 10 μL of suspension was collected from wells corresponding to the MIC and the highest following concentration and was deposited in MHA plates. The plates were incubated for 24 h at 36 °C, and the MLC was determined as the lowest concentration at which no bacterial growth was observed.

[3] = tested on: Escherichia coli ATCC 25922; experiment: as above; format: cell-based
Description: as §1, §2, §3, §4, §5, §6, §7

[4] = bloodstream forms, 72 h incubation, resazurin
[5] = ATCC25923, broth microdilution, 16 to 512 µg/mL, 18–24 h at 36 °C, read-out: MIC S. aureus
[6] = ATCC25922, broth microdilution, 16 to 512 µg/mL, 18–24 h at 36 °C, read-out: MIC E. coli

SMILES	IC50 [1, 4]	Anti-Parasitic Activity IC50 (µM) 95% CI, T. brucei [1, 4]	MIC [2, 5]	MIC [3, 6]	MIC ([2]; ATCC25923, second value printed after the MIC of the preceding sentence, read-out: MIC S. aureus ("the only MIC evaluated"))	MIC ([3]; ATCC25922, second value printed after the MIC of the preceding sentence, read-out: MIC E. coli ("the only MIC evaluated"))	IC50 ([1]; 72 h)
C=CCc1cc(Cn2cc(C(=O)Nc3ccccc3C(N)=O)nn2)c(O)c(OC)c1 [9a, 1-(5-allyl-2-hydroxy-3-methoxybenzyl)-N-(2-carbamoylphenyl)-1H-1,2,3-triazole-4-carboxamide]	> 40 µM	did not show detectable values of IC50	> 512 mg/L	> 512 mg/L			
C=CCc1cc(Cn2cc(C(=O)Nc3ccc(OC)cc3C(N)=O)nn2)c(O)c(OC)c1 [9b, 1-(5-allyl-2-hydroxy-3-methoxybenzyl)-N-(2-carbamoyl-4-methoxyphenyl)-1H-1,2,3-triazole-4-carboxamide]	16.4 µM		> 512 mg/L	> 512 mg/L			
C=CCc1cc(Cn2cc(C(=O)Nc3ccc(F)cc3C(N)=O)nn2)c(O)c(OC)c1 [9c, 1-(5-allyl-2-hydroxy-3-methoxybenzyl)-N-(2-carbamoyl-4-fluorophenyl)-1H-1,2,3-triazole-4-carboxamide]	21 µM		256 mg/L (≈ 602 µM)	256 to 512 mg/L (≈ 602 to 1200 µM)	≤ 512 mg/L	> 512 mg/L	
C=CCc1cc(Cn2cc(C(=O)Nc3ccc(Cl)cc3C(N)=O)nn2)c(O)c(OC)c1 [9d, 1-(5-allyl-2-hydroxy-3-methoxybenzyl)-N-(2-carbamoyl-4-chlorophenyl)-1H-1,2,3-triazole-4-carboxamide]	15.9 µM		> 512 mg/L	> 512 mg/L			
C=CCc1cc(Cn2cc(-c3nc4ccccc4c(=O)[nH]3)nn2)c(O)c(OC)c1 [10a, 2-(1-(5-allyl-2-hydroxy-3-methoxybenzyl)-1H-1,2,3-triazol-4-yl)quinazolin-4(3H)-one]	> 40 µM	did not show detectable values of IC50	> 512 mg/L	> 512 mg/L			
C=CCc1cc(Cn2cc(-c3nc4ccc(OC)cc4c(=O)[nH]3)nn2)c(O)c(OC)c1 [10b, 2-(1-(5-allyl-2-hydroxy-3-methoxybenzyl)-1H-1,2,3-triazol-4-yl)-6-methoxyquinazolin-4(3H)-one]	19.9 µM		> 512 mg/L	> 512 mg/L			
C=CCc1cc(Cn2cc(-c3nc4ccc(F)cc4c(=O)[nH]3)nn2)c(O)c(OC)c1 [10c, 2-(1-(5-allyl-2-hydroxy-3-methoxybenzyl)-1H-1,2,3-triazol-4-yl)-6-fluoroquinazolin-4(3H)-one]	11.2 µM		> 512 mg/L	> 512 mg/L			
C=CCc1ccc(O)c(OC)c1 [Eugenol, eugenol, reference compound]			> 512 mg/L	> 512 mg/L			> 40 µM
C=CCc1ccc(OCc2cn(CC(=O)Nc3ccccc3C(=O)O)nn2)c(OC)c1 [compound 13, 2-(2-(4-((4-allyl-2-methoxyphenoxy)methyl)-1H-1,2,3-triazol-1-yl)acetamido) benzoic acid]	> 40 µM		> 512 mg/L	> 512 mg/L			
C=CCc1cc(Cn2cc(-c3nc4ccccc4c(=O)o3)nn2)c(O)c(OC)c1 [compound 14, 2-(1-(5-allyl-2-hydroxy-3-methoxybenzyl)-1H-1,2,3-triazol-4-yl)-4H-benzo[d][1,3]oxazin-4-one]	31.7 µM		> 512 mg/L	> 512 mg/L			
